Values quoted from earlier work in patent US20240002325A1, “OXYLIPINS, PROCESSES FOR MAKING THE SAME, AND METHODS FOR USING THE SAME” (THE TRUSTEES OF INDIANA UNIVERSITY, priority 2020, published 2024).

Tests used:
[1] = tested on: flagellum-driven swimming and swarming motilities; conditions: has been reported
bacterial biofilms = conditions: in vitro; has been reported

SMILES: CCCCCCCCC(O)/C=C/CCCCCCC(=O)O (centres unmarked) [Compound 10-HOME, (E)-10-hydroxyoctadec-8-enoic acid]
- effect on flagellum-driven swimming and swarming motilities [1]: inhibit flagellum-driven swimming and swarming motilities
- effect on formation of bacterial biofilms (bacterial biofilms): stimulate the formation of bacterial biofilms in vitro
